Measurements: patent US12076307B2, “Compositions for prevention or treatment of acute radiation syndrome and other radiation exposure” (priority 2017, dated 2024)
Values joined by “and” are separate entries in the source; they are usually repeats but may differ in a detail not shown here. Identical values can stand only once.

Key:
Balb/c mice, 6.11 Gy TBI = assay: Structural analog / calorie effect study: EC-18, PLH, olive oil in 6.11 Gy ARS model; format: in vivo, mouse; conditions: 250 mg/kg daily
Protocol: Similarly, a structural analog efficacy study was conducted to identify the optimally functional molecule in the ARS murine model. The study was performed with the structural analog in which the acetyl group in EC-18 is replaced with a hydroxyl group (yielding palmitic linoleic hydroxyl glycerol, PLH) in 20 Balb/c mice (10 female and 10 male) per group. Mice were irradiated with TBI of 6.11Gy at day 0 and 250 mg/kg of EC-18 or PLH were given daily in-life.
The purpose of this study was to assess whether extra calories of EC-18 contribute to the enhanced survival in mice after exposure to a whole-body sublethal dose of γ-radiation. The study was performed with the structural analog in which the acetyl group in EC-18 is replaced with a hydroxyl group (yielding PLH) in a total of 100 BALB/c mice ([…]; 20 animals per study group) aged at 11 weeks. Mice were irradiated with TBI of 6.11Gy at day 0 and the same dosage (250 mg/kg) of EC-18, PLH, or olive oil (vehicle control) were given daily in-life.

[1] = Plasma radioactivity in rats after single oral or IV [14C]EC-18; format: in vivo, rat
Protocol: Male SD rats in the fed state were administered a single oral dose of 25, 50, or 100 mg/kg (vehicle: olive oil) or a single IV injection of 10 mg/kg of [^14C]EC-18 (EC-18 with radioactive isotope ^14C attached). Subsequently, the PK parameters were assessed. The concentration of radioactivity in rat plasma was measured by liquid scintillation counting (LSC) method after adding a scintillator (Clear-Sol I, Nacalai Tesque, Inc).

[2] = Plasma and lymphatic radioactivity after single oral [14C]EC-18 50 mg/kg in cannulated rats; format: in vivo, rat; conditions: 50 mg/kg oral; for Radioactive Concentration in Plasma: n=3
Protocol: After inserting a cannula into the intestinal tract of male SD rats, the rats in fed condition were given a single dose of [^14C]EC-18 (oral dose of 50 mg/kg; vehicle: olive oil), and samples were collected after 0.5, 1, 2, 4, 6, and 8 hrs of administration. In parallel, lymphatic fluid samples were collected from conscious rats up to 8 hrs after administration. The radioactive concentrations in rat plasma and lymphatic fluid were measured by LSC after adding a scintillator, and the quantified data are shown in Table 19.

[3] = Whole blood and lymphatic radioactivity in rats after single oral [14C]EC-18 100 mg/kg; format: in vivo, rat; conditions: 100 mg/kg oral, n=3; for Tmax: 100 mg/kg
Protocol: Male SD rats in fasted condition were administered a single dose of [^14C]EC-18 (oral dose of 100 mg/kg; vehicle: olive oil), and the radioactive concentration of the EC-18 was measured in whole blood samples at 0.5, 1, 2, 3, 4, 6, and 8 hrs after its administration. In parallel, male rats with a cannula inserted into the intestinal tract were administered a single dose of [^14C]EC-18 (oral dose of 100 mg/kg; vehicle: olive oil) and the concentration of EC-18-related radioactivity was measured in lymphatic fluid collected in conscious rats at 0.5, 1, 2, 3, 4, 6, and 8 hrs after its administration (FIG. 60). Then, the values of PK parameters were calculated using the quantitative data from whole blood and lymphatic fluid samples (Table 20). Following a single oral administration of [14C]EC-18, EC-18 concentration in the lymphatic fluid of rats was 10 to 53 times higher than that in whole blood (FIG. 60).

[4] = Whole-body autoradiography of rats after single oral [14C]EC-18; format: in vivo, rat; conditions: 200 mg/kg oral, fasted
Protocol: Male albino rats in fasted conditions were administered a single dose of [^14C]EC-18 (oral dose of 200 mg/kg, vehicle: olive oil). The distribution and levels of radioactivity in the body were observed by whole-body autoradiography performed at 0.25, 1, 8, and 24 hrs after [^14C]EC-18 administration.

[5] = Pathway of excretion in rats after single oral [14C]EC-18; format: in vivo, rat; conditions: 50 mg/kg oral
Protocol: To assess the routes of EC-18 excretion, male rats were administered a single dose of [^14C]EC-18 (oral dose of 50 mg/kg), after which, radioactive concentrations were measured in urine, feces, and exhaled air in the chamber of the animals for 168 hrs, and in the body after the autopsy.

[6] = Oral 25 mg/kg, plasma, fed, n=3
[7] = Oral 50 mg/kg, plasma, fed, n=3
[8] = Oral 100 mg/kg, plasma, fed, n=3

Compound: CCCCC/C=C\C/C=C\CCCCCCCC(=O)OC(CO)COC(=O)CCCCCCCCCCCCCCC (stereo not drawn) [PLH, palmitic linoleic hydroxyl glycerol, reference compound]
- No. of mice that survived/total (Balb/c mice, 6.11 Gy TBI): 8/20
- Survival (Balb/c mice, 6.11 Gy TBI): 40%
- Survival time of decedents, Mean ± SEM (Balb/c mice, 6.11 Gy TBI): 18.8 ± 1.6 days
- Survival time of decedents, Median (Balb/c mice, 6.11 Gy TBI): 18 days
- body weight loss induced by irradiation (Balb/c mice, 6.11 Gy TBI): aggravated body weight loss
- survival compared to control group (Balb/c mice, 6.11 Gy TBI; 250 mg/kg): no statistically significant difference

Compound: CCCCC/C=C\C/C=C\CCCCCCCC(=O)OC(COC(C)=O)COC(=O)CCCCCCCCCCCCCCC (stereo not drawn) [[^14C]EC-18]
- AUClast ([1]; IV 10 mg/kg, plasma, fed, n=3): 215 ± 11 μg eq · hr/mL
- Cmax (= C0) ([1]; IV 10 mg/kg, plasma, fed, n=3): 81.5 ± 3.4 μg eq/mL
- t1/2 ([1]; IV 10 mg/kg, plasma, fed, n=3): 32.5 ± 1.2 h
- F ([1]; Oral 25 mg/kg): 46%
- AUClast [1, 6]: 224 ± 30 μg eq · hr/mL
- Cmax [1, 6]: 7.2 ± 1.4 μg eq/mL
- Tmax [1, 6]: 7.3 ± 5.0 h
- t1/2 [1, 6]: 32.0 ± 3.1 h
- F ([1]; Oral 50 mg/kg): 49%
- AUClast [1, 7]: 473 ± 53 μg eq · hr/mL
- Cmax [1, 7]: 16.6 ± 1.4 μg eq/mL
- Tmax [1, 7]: 4.7 ± 2.3 h
- t1/2 [1, 7]: 31.4 ± 1.8 h
- F ([1]; Oral 100 mg/kg): 42%
- AUClast [1, 8]: 830 ± 29 μg eq · hr/mL
- Cmax [1, 8]: 29.6 ± 2.7 μg eq/mL
- Tmax [1, 8]: 6.0 ± 3.5 h
- t1/2 [1, 8]: 31.7 ± 3.5 h
- Radioactive Concentration in Plasma ([2]; 0.5 hr): 0.096 ± 0.096 μg eq/mL
- Radioactive Concentration in Plasma ([2]; 1 hr): 0.689 ± 0.796 μg eq/mL
- Radioactive Concentration in Plasma ([2]; 2 hr): 2.09 ± 1.65 μg eq/mL
- Radioactive Concentration in Plasma ([2]; 4 hr): 6.51 ± 2.21 μg eq/mL
- Radioactive Concentration in Plasma ([2]; 6 hr): 10.2 ± 2.7 μg eq/mL
- radioactive concentration in plasma as share of the administered dose ([2]; 8 h): approximately 28%
- Radioactive Concentration in Plasma ([2]; 8 hr, 50 mg/kg): 17.5 μg eq/mL and 17.5 ± 4.9 μg eq/mL
- AUC0-inf ([3]; Lymphatic Fluid): 53900 ± 39100 μg eq · hr/mL
- AUC0-last ([3]; Lymphatic Fluid): 20400 ± 600 μg eq · hr/mL
- Cmax ([3]; Lymphatic Fluid): 1210 ± 200 µg/mL
- t1/2 ([3]; Lymphatic Fluid): 29.7 ± 28.1 h
- Tmax ([3]; Lymphatic Fluid): 7.0 ± 2.0 h
- AUC0-inf ([3]; Whole Blood, fasted): 819 ± 130 μg eq · hr/mL
- AUC0-last ([3]; Whole Blood, fasted): 496 ± 69 μg eq · hr/mL
- Cmax ([3]; Whole Blood, fasted): 38.8 ± 9.5 µg/mL
- t1/2 ([3]; Whole Blood, fasted): 16.8 ± 1.9 h
- Tmax ([3]; Whole Blood, fasted): 3.8 ± 2.9 h
- site of highest radioactivity ([4]; 0.25 hr): stomach and small intestine
- site of highest radioactivity ([4]; 1 hr): stomach and small intestine
- site of highest radioactivity ([4]; 8 hrs): inner walls of the stomach
- radioactivity distribution ([4]; 24 hrs): low radioactivity was observed in the liver
- Cumulative Radioactive Concentration Relative to the Administered Dose, Cage-Cleaning Water ([5]; 0-24 hr): 0.0 ± 0.0%
- Cumulative Radioactive Concentration Relative to the Administered Dose, Exhaled Air ([5]; 0-24 hr, 50 mg/kg): 71.0 ± 3.2%
- Cumulative Radioactive Concentration Relative to the Administered Dose, Feces ([5]; 0-24 hr, 50 mg/kg): 3.0 ± 0.5%
- Cumulative Radioactive Concentration Relative to the Administered Dose, Total ([5]; 0-24 hr, 50 mg/kg): 75.9 ± 3.2%
- Cumulative Radioactive Concentration Relative to the Administered Dose, Urine ([5]; 0-24 hr, 50 mg/kg): 1.9 ± 0.3%
- Cumulative Radioactive Concentration Relative to the Administered Dose, Cage-Cleaning Water ([5]; 0-48 hr): 0.1 ± 0.1%
- Cumulative Radioactive Concentration Relative to the Administered Dose, Exhaled Air ([5]; 0-48 hr): 75.0 ± 3.8%
- Cumulative Radioactive Concentration Relative to the Administered Dose, Feces ([5]; 0-48 hr): 3.6 ± 0.7%
- Cumulative Radioactive Concentration Relative to the Administered Dose, Total ([5]; 0-48 hr): 80.7 ± 3.8%
- Cumulative Radioactive Concentration Relative to the Administered Dose, Urine ([5]; 0-48 hr): 2.1 ± 0.3%
- Cumulative Radioactive Concentration Relative to the Administered Dose, Cage-Cleaning Water ([5]; 0-72 hr): 0.1 ± 0.0%
- Cumulative Radioactive Concentration Relative to the Administered Dose, Exhaled Air ([5]; 0-72 hr, 50 mg/kg): 76.7 ± 3.9%
- Cumulative Radioactive Concentration Relative to the Administered Dose, Feces ([5]; 0-72 hr, 50 mg/kg): 3.8 ± 0.7%
- Cumulative Radioactive Concentration Relative to the Administered Dose, Total ([5]; 0-72 hr, 50 mg/kg): 82.8 ± 3.9%
- Cumulative Radioactive Concentration Relative to the Administered Dose, Urine ([5]; 0-72 hr, 50 mg/kg): 2.2 ± 0.3%
- Cumulative Radioactive Concentration Relative to the Administered Dose, Cage-Cleaning Water ([5]; 0-96 hr): 0.1 ± 0.0%
- Cumulative Radioactive Concentration Relative to the Administered Dose, Exhaled Air ([5]; 0-96 hr): 77.7 ± 3.9%
- Cumulative Radioactive Concentration Relative to the Administered Dose, Feces ([5]; 0-96 hr): 3.9 ± 0.7%
- Cumulative Radioactive Concentration Relative to the Administered Dose, Total ([5]; 0-96 hr): 84.0 ± 3.8%
- Cumulative Radioactive Concentration Relative to the Administered Dose, Urine ([5]; 0-96 hr): 2.3 ± 0.4%
- Cumulative Radioactive Concentration Relative to the Administered Dose, Cage-Cleaning Water ([5]; 0-120 hr): 0.1 ± 0.0%
- Cumulative Radioactive Concentration Relative to the Administered Dose, Exhaled Air ([5]; 0-120 hr): 78.4 ± 3.9%
- Cumulative Radioactive Concentration Relative to the Administered Dose, Feces ([5]; 0-120 hr): 4.0 ± 0.7%
- Cumulative Radioactive Concentration Relative to the Administered Dose, Total ([5]; 0-120 hr): 84.8 ± 3.8%
- Cumulative Radioactive Concentration Relative to the Administered Dose, Urine ([5]; 0-120 hr): 2.3 ± 0.4%
- Cumulative Radioactive Concentration Relative to the Administered Dose, Cage-Cleaning Water ([5]; 0-144 hr): 0.1 ± 0.0%
- Cumulative Radioactive Concentration Relative to the Administered Dose, Exhaled Air ([5]; 0-144 hr): 78.9 ± 3.9%
- Cumulative Radioactive Concentration Relative to the Administered Dose, Feces ([5]; 0-144 hr): 4.1 ± 0.7%
- Cumulative Radioactive Concentration Relative to the Administered Dose, Total ([5]; 0-144 hr): 85.4 ± 3.8%
- Cumulative Radioactive Concentration Relative to the Administered Dose, Urine ([5]; 0-144 hr): 2.3 ± 0.4%
- Cumulative Radioactive Concentration Relative to the Administered Dose, Cage-Cleaning Water ([5]; 0-168 hr): 0.1 ± 0.0%
- Cumulative Radioactive Concentration Relative to the Administered Dose, Cadaver ([5]; 0-168 hr, 50 mg/kg): 9.8 ± 1.0%
- Cumulative Radioactive Concentration Relative to the Administered Dose, Exhaled Air ([5]; 0-168 hr, 50 mg/kg): 79.3 ± 3.9%
- Cumulative Radioactive Concentration Relative to the Administered Dose, Feces ([5]; 0-168 hr, 50 mg/kg): 4.2 ± 0.7%
- Cumulative Radioactive Concentration Relative to the Administered Dose, Total ([5]; 0-168 hr, 50 mg/kg): 95.7 ± 3.3%
- Cumulative Radioactive Concentration Relative to the Administered Dose, Urine ([5]; 0-168 hr, 50 mg/kg): 2.3 ± 0.4%
